# Data: article PMC5906549, “Cathelicidin-Derived Antimicrobial Peptides Inhibit Zika Virus Through Direct Inactivation and Interferon Pathway” (Frontiers in Immunology, 2018)
# Peptide text beside a SMILES is read from it.
# Key:
# ZIKV strain MR766 [1] = experiment: ZIKV RNA in infected Vero cells, peptide pre-treatment (real-time RT-PCR); format: cell-based, Zika virus; settings: for ZIKV RNA compared with untreated controls: peptide 2 µM, 2 h before ZIKV MOI 0.5, re-treated at 24 h, 48-h post-infection, RT-PCR normalized to GAPDH, N = 3
# Description: (§1) Human fetal astrocytes were derived from a single-cell isolation process of fetal brain tissues as previously described ([25], [26]). Briefly, dissociated brain tissue was incubated with 0.25% trypsin for 30 min, followed by neutralization with 10% fetal bovine serum (FBS), and further dissociated by trituration. The single-cell suspension was cultured as adherent cells in DMEM/F12 (Thermo Fisher Scientific, Waltham, MA, USA), supplemented with 10% FBS, penicillin (50 units/mL), and streptomycin (50 µg/mL) (Thermo Fisher Scientific). […] Vero cells (ATCC, CCL-81), an African green monkey kidney cell line, were maintained in Dulbecco’s Modified Eagle Medium (DMEM) with 5% FBS. Experiments with ZIKV were performed exclusively inside a BioSafety Level 2 (laboratory). All procedures utilized in this study were approved by the Institutional Biosafety Committee (IBC 16-05-013BL2) and followed biosafety level II practices as shown in National Institutes of health (NIH) Guideline Appendix G-II-B. ZIKV strain MR766 (Uganda, 1947) was obtained from ZeptoMetrix Corp., Buffalo, NY, USA, and propagated in Vero cells. ZIKV infection of the Vero cells and fetal astrocytes was previously characterized ([27]) and all infections in the current studies were at the MOI of 0.5.
# (§2) Total mRNA was isolated with TRIzol Reagent (Thermo Fisher Scientific) and RNeasy Mini Kit (QIAGEN Inc., Valencia, CA, USA) following the manufacturer’s recommendations. Two real-time RT-PCR methods were used for the current studies. First, SYBR Green-based RT-PCR assay was used to determine intracellular ZIKV RNA in Vero cells. For this assay, reverse transcription was performed using Verso cDNA synthesis Kit (Thermo Fisher Scientific) and 1 µg of total RNA in a 15-µL final volume. The RT-PCR analyses were performed using 7.5-µL SYBR Green PCR Master Mix (Thermo Fisher Scientific) with 0.5-µL cDNA, 1.5-µL H2O, 5.5-µL oligonucleotide primer pairs at 10 µM. […] GG-3. PCR program: 1, 50°C for 2 min; 2, 95°C for 2 min; 3, 95°C for 15 s; 4, specific annealing temperature for 15 s; 5, 72°C for 1 min. Steps 2–4 were repeated 40 times. All samples were amplified in triplicate for analysis. Relative ZIKV RNA levels were determined and standardized with a GAPDH internal control using comparative ΔΔCT method ([35]). Second, TaqMan-based RT-PCR assay was used to determine intracellular ZIKV RNA and other gene expressions in Figures 3–6 and extracellular ZIKV RNA in Figure 3. The TaqMan assay was performed in a StepOne^TM Real-Time PCR system (Thermo Fisher Scientific). Primers used for TaqMan real-time RT-PCR were all from the Thermo Fisher Scientific, which included ZIKV (forward sequence: 5-[…]-3, reverse sequence: 5- […]-3, and probe sequence: 5′-[…]-3), IFN-α2 (Hs00265051_s1), IFN-β1 (Hs01077958_s1), eukaryotic 18-s rRNA (Hs99999901_s1), β-actin (Hs99999903_m1), and GAPDH (Catalog number: 4310884E). Relative ZIKV mRNA levels were determined and standardized with a GAPDH or 18-s rRNA endogenous control using comparative ΔΔCT method ([35]). […] For ZIKV in supernatants, RNA was extracted from the supernatants through TRIzol™ LS Reagent (Thermo Fisher Scientific, 10296028) following the manufacturer’s manual. […] Quantitative genomic RNA from ZIKV (NR-1838DQ, ATCC) was used as a standard to calculate viral copies.
# ZIKV strain MR766 [2] = experiment: Intracellular ZIKV RNA in infected human fetal astrocytes, peptide pre-treatment (real-time RT-PCR); format: cell-based, Zika virus; settings: for Reduction of ZIKV RNA levels: astrocytes, 10 µM, at 48 h; for Intracellular ZIKV RNA, % of the untreated ZIKV group / Dose dependence of intracellular ZIKV RNA decrease: human fetal astrocytes, 48 h; for Intracellular ZIKV RNA, % of the untreated ZIKV group: 2 h pre-treatment, ZIKV MOI 0.5, re-treated at 24 h, normalized to GAPDH, N = 3; for Dose dependence of intracellular ZIKV RNA decrease: pre-treatment 0.4 to 10 µM, ZIKV MOI 0.5
# Description: as §1, §2
# ZIKV strain MR766 [3] = experiment: Direct inactivation of ZIKV by AMPs, plaque-forming assay; parameters: species or system Zika virus; settings: 37°C; for Number of infectious virions after direct incubation: 10 µM peptide with ZIKV, all the time points (1, 2, 4 h), plaque assay; for Inactivation of Zika virions: plaque assay on Vero
# Description: Vero cells were plated into 12-well plates at 5 (10^5 cells/well the day before infection). On the day of infection, the monolayers of Vero cells were inoculated with 100 µL of 10-fold serial dilutions of viral stocks and incubated at 37 °C for 1 h. After viral inoculation, medium containing ZIKV particles was removed and 1 ml overlay containing 0.6% molecular biology grade agarose (Agarose Unlimited, Alachua, FL, USA) in Modified Eagle Medium (Gibco) with 2% FBS. Cells were maintained at 37°C in 5% CO2 for 4 days. On day 5, cells were fixed with 4% paraformaldehyde solution in PBS and stained with 1% crystal violet solution in 20% methanol in water. Viral plaques were photographed using a CanonScan 9950F scanner and each plaque was counted as a plaque-forming unit (PFU). Viral titer was calculated as PFU/[volume virus (mL) × (dilution factor)].
# Zika virus viral stocks were diluted to 10^6 PFU/mL with serum-free medium and peptides were added at the indicated final concentrations. The mixtures were incubated at 37°C for 1–4 h. At each time point, 200 µL of the mixtures was removed for virus yield determination. Ten-fold serial dilutions of the mixtures were prepared and number of infectious Zika virions in the inoculum was determined by the aforementioned plaque-forming assay on Vero cell monolayers.
# Figure 7 GF-17 directly inactivates Zika virions. (A) Experimental scheme. Briefly, Zika virus (ZIKV) virions were directly treated with antimicrobial peptides at 37°C. Part of the inoculum was removed at the indicated time points and serial diluted for the plaque-forming assay to determine the number of infectious Zika virions. (B) Quantification of the viral plaques was performed and plaque-forming unit at each of the treatment groups was shown. ANOVA and Bonferroni post-test were performed on all groups. *** p < 0.001, as compared with the ZIKV control group (CTL, control).
structure (smiles),measurement,setting,value
CC[C@H](C)[C@H](NC(=O)[C@H](CCCCN)NC(=O)[C@H](CCCCN)NC(=O)[C@H](Cc1ccccc1)NC(=O)[C@H](CC(C)C)NC(=O)[C@H](CCCCN)NC(=O)[C@H](CCCCN)NC(=O)[C@H](Cc1ccccc1)NC(=O)[C@H](CCCCN)NC(=O)[C@H](CCCCN)NC(=O)[C@H](CCCNC(=N)N)NC(=O)[C@H](Cc1ccccc1)NC(=O)[C@H](CCCNC(=N)N)NC(=O)[C@H](CCCCN)NC(=O)[C@H](Cc1ccccc1)NC(=O)[C@H](CCCNC(=N)N)NC(=O)CN)C(=O)N[C@@H](CO)C(=O)O [BMAP-18] (H-GRFKRFRKKFKKLFKKIS-OH; N-terminus and C-terminus assumed),ZIKV RNA compared with untreated controls,ZIKV strain MR766 [1],significantly decreased ZIKV RNA
same,Reduction of ZIKV RNA levels,ZIKV strain MR766 [2],> 95%
same,"Intracellular ZIKV RNA, % of the untreated ZIKV group",ZIKV strain MR766 [2]; peptide 2 µM,15%
same,"Intracellular ZIKV RNA, % of the untreated ZIKV group",ZIKV strain MR766 [2]; peptide 10 µM,4%
same,Dose dependence of intracellular ZIKV RNA decrease,ZIKV strain MR766 [2],decreased intracellular ZIKV RNA in a dose-dependent manner
same,Number of infectious virions after direct incubation,ZIKV strain MR766 [3],did not significantly change the number of infectious virions
"CC[C@H](C)[C@H](NC(=O)[C@H](CCCNC(=N)N)NC(=O)[C@H](CCC(N)=O)NC(=O)[C@@H](NC(=O)[C@@H](NC(=O)[C@@H](N)CCCNC(=N)N)[C@@H](C)CC)C(C)C)C(=O)N[C@@H](CCCCN)C(=O)N[C@@H](CC(=O)O)C(=O)N[C@@H](Cc1ccccc1)C(=O)N[C@@H](CC(C)C)C(=O)O [RI-10, reference compound] (H-RIVQRIKDFL-OH; N-terminus and C-terminus assumed)",Dose dependence of ZIKV RNA decrease,"ZIKV strain MR766 [1]; peptide 0.4, 2 and 10 µM, ZIKV MOI 0.5, 48-h post-infection",except RI-10 showed dose-dependent decrease of ZIKV RNA
same,Dose dependence of intracellular ZIKV RNA decrease,ZIKV strain MR766 [2],"but not RI-10, decreased intracellular ZIKV RNA"
same,Number of infectious virions after direct incubation,ZIKV strain MR766 [3],did not significantly change the number of infectious virions
CC[C@H](C)[C@H](NC(=O)[C@H](CCCNC(=N)N)NC(=O)[C@H](CCC(N)=O)NC(=O)[C@@H](NC(=O)[C@@H](NC(=O)[C@H](CCCNC(=N)N)NC(=O)[C@H](CCCCN)NC(=O)[C@H](Cc1ccccc1)NC(=O)CN)[C@@H](C)CC)C(C)C)C(=O)N[C@@H](CCCCN)C(=O)N[C@@H](CC(=O)O)C(=O)N[C@@H](Cc1ccccc1)C(=O)N[C@@H](CC(C)C)C(=O)N[C@@H](CCCNC(=N)N)C(=O)N[C@@H](CC(N)=O)C(=O)N[C@@H](CC(C)C)C(=O)N[C@H](C(N)=O)C(C)C [GF-17] (H-GFKRIVQRIKDFLRNLV-NH2; N-terminus and C-terminus assumed),ZIKV RNA compared with untreated controls,ZIKV strain MR766 [1],significantly decreased ZIKV RNA
same,Reduction of ZIKV RNA levels,ZIKV strain MR766 [2],over 99%
same,"Intracellular ZIKV RNA, % of the untreated ZIKV group",ZIKV strain MR766 [2]; peptide 2 µM,46%
same,"Intracellular ZIKV RNA, % of the untreated ZIKV group",ZIKV strain MR766 [2]; peptide 10 µM,1%
same,Dose dependence of intracellular ZIKV RNA decrease,ZIKV strain MR766 [2],decreased intracellular ZIKV RNA in a dose-dependent manner
same,Inactivation of Zika virions,"ZIKV strain MR766 [3]; 10 µM peptide mixed with ZIKV (10^6 PFU/mL, serum-free medium), 1-h incubation",> 95%
same,Inactivation of Zika virions,"ZIKV strain MR766 [3]; 10 µM peptide mixed with ZIKV, 2-h incubation",> 99%
same,Inactivation of Zika virions,"ZIKV strain MR766 [3]; 10 µM peptide mixed with ZIKV, 4-h incubation",99%
